Literature values as cited in patent US20120251478A1, “Method for treatment of a glomerular disease comprising administration of anion exchange resin” (priority 2006, published 2012).

Tested on: apparent albuminuria
Settings: reports, nonpatent reference 2

## COc1ccc(Cl)cc1C(=O)NCCc1ccc(S(=O)(=O)NC(=O)NC2CCCCC2)cc1 [glibenclamide]
  apparent albuminuria: not ameliorated
